Experimental data taken from the OligoGym collection.
HELM strings list units from the 5' end as sugar, base in round brackets, then linkage (d deoxyribose, r ribose, m 2'-O-methyl, p phosphodiester). Strings are as the collection lists them; they lack the last nucleoside at the 3' end of the tested compound. [moe] = 2'-O-(2-methoxyethyl) (MOE); [sp] = phosphorothioate linkage; [m5C] = 5-methylcytosine

Each substance was assayed against ATXN2 (assay: mouse, dose not given). Conditions: ASO.
With “RNA1{[moe](G)[sp].[moe](A)p.[moe](T)p.[moe](G)p.[moe](T)p.d(T)[sp].d(T)[sp].d([m5C])[sp].d(A)[sp].d(T)[sp].d(T)[sp].d(G)[sp].d(G)[sp].d(G)[sp].d(T)[sp].[moe](T)p.[moe](T)p.[moe](A)[sp].[moe](A)}$$$$ (last 3' nucleoside missing)” the 3 h FOB score was 6.25 score 0-7.
Work on “RNA1{[moe](G)[sp].[moe](A)p.[moe](T)p.[moe](T)p.[moe](A)p.d(A)[sp].d([m5C])[sp].d(G)[sp].d(G)[sp].d(T)[sp].d(T)[sp].d(G)[sp].d([m5C])[sp].d(T)[sp].d(T)[sp].[moe](A)p.[moe](G)p.[moe](G)[sp].[moe](G)}$$$$ (last 3' nucleoside missing)” yielded a 3 h FOB score of 6.5 score 0-7.
“RNA1{[moe](G)[sp].[moe](A)p.[moe](T)p.[moe](T)p.[moe]([m5C])[sp].d(T)[sp].d(G)[sp].d(T)[sp].d(A)[sp].d([m5C])[sp].d(T)[sp].d(T)[sp].d(T)[sp].[moe](T)p.[moe]([m5C])p.[moe](T)[sp].[moe]([m5C])}$$$$ (last 3' nucleoside missing)” showed a 3 h FOB score of 1 score 0-7.
In the case of “RNA1{[moe](G)[sp].[moe](A)p.[moe](T)p.[moe](T)p.[moe]([m5C])p.d(T)[sp].d(G)[sp].d(T)[sp].d(A)[sp].d([m5C])[sp].d(T)[sp].d(T)[sp].d(T)[sp].d(T)[sp].d([m5C])[sp].[moe](T)p.[moe]([m5C])p.[moe](A)[sp].[moe](T)}$$$$ (last 3' nucleoside missing)”, the 3 h FOB score is reported as 4.5 score 0-7.
For “RNA1{[moe](G)[sp].[moe](A)p.[moe]([m5C])p.[moe](A)p.[moe](T)p.d(G)[sp].d([m5C])[sp].d(G)[sp].d(G)[sp].d(T)[sp].d(T)[sp].d(T)[sp].d([m5C])[sp].d(A)[sp].d([m5C])[sp].[moe]([m5C])p.[moe](A)p.[moe](T)[sp].[moe](T)}$$$$ (last 3' nucleoside missing)”, the 3 h FOB score was 4 score 0-7.
Substance “RNA1{[moe](G)[sp].[moe](G)[sp].[moe](A)[sp].[moe](G)[sp].[moe]([m5C])[sp].d(T)[sp].d(G)[sp].d(G)[sp].d(A)[sp].d(G)[sp].d(A)[sp].d(A)[sp].d([m5C])[sp].d([m5C])[sp].d(A)[sp].[moe](T)[sp].[moe](G)[sp].[moe](A)[sp].[moe](G)}$$$$ (last 3' nucleoside missing)” has a 3 h FOB score of 7 score 0-7.
“RNA1{[moe](G)[sp].[moe](G)p.[moe](A)p.[moe](A)p.[moe](T)p.d([m5C])[sp].d(T)[sp].d(T)[sp].d(A)[sp].d(T)[sp].d(T)[sp].d(A)[sp].d(A)[sp].d(G)[sp].d([m5C])[sp].[moe](A)p.[moe](A)p.[moe](G)[sp].[moe](T)}$$$$ (last 3' nucleoside missing)” showed a 3 h FOB score of 4.5 score 0-7.
Substance “RNA1{[moe](G)[sp].[moe](G)p.[moe](A)p.[moe](T)p.[moe](A)p.d([m5C])[sp].d(A)[sp].d(A)[sp].d(A)[sp].d(T)[sp].d(T)[sp].d([m5C])[sp].d(T)[sp].d(A)[sp].d(G)[sp].[moe](G)p.[moe]([m5C])p.[moe]([m5C])[sp].[moe](A)}$$$$ (last 3' nucleoside missing)” has a 3 h FOB score of 4 score 0-7.
Substance “RNA1{[moe](G)[sp].[moe](G)p.[moe](A)p.[moe](T)p.[moe](T)[sp].d([m5C])[sp].d(T)[sp].d(G)[sp].d(T)[sp].d(A)[sp].d([m5C])[sp].d(T)[sp].d(T)[sp].[moe](T)p.[moe](T)p.[moe]([m5C])[sp].[moe](T)}$$$$ (last 3' nucleoside missing)” has a 3 h FOB score of 2.5 score 0-7.
“RNA1{[moe](G)[sp].[moe](G)p.[moe](A)p.[moe](T)p.[moe](T)p.d(G)[sp].d(T)[sp].d(T)[sp].d(T)[sp].d(T)[sp].d([m5C])[sp].d(T)[sp].d(T)[sp].d([m5C])[sp].d(A)[sp].[moe](T)p.[moe](T)p.[moe](A)[sp].[moe](T)}$$$$ (last 3' nucleoside missing)” was tested, and the 3 h FOB score was 0 score 0-7.
“RNA1{[moe](G)[sp].[moe](G)p.[moe](A)p.[moe](T)p.[moe](T)p.d([m5C])[sp].d(T)[sp].d(G)[sp].d(T)[sp].d(A)[sp].d([m5C])[sp].d(T)[sp].d(T)[sp].d(T)[sp].d(T)[sp].[moe]([m5C])p.[moe](T)p.[moe]([m5C])[sp].[moe](A)}$$$$ (last 3' nucleoside missing)” was tested, and the 3 h FOB score was 1 score 0-7.
For “RNA1{[moe](G)[sp].[moe](G)p.[moe](A)p.[moe]([m5C])p.[moe](A)p.d(A)[sp].d(G)[sp].d(A)[sp].d(A)[sp].d(A)[sp].d(T)[sp].d(T)[sp].d(T)[sp].d(T)[sp].d([m5C])[sp].[moe](A)p.[moe](G)p.[moe](T)[sp].[moe](T)}$$$$ (last 3' nucleoside missing)”, the 3 h FOB score was 4.5 score 0-7.
“RNA1{[moe](G)[sp].[moe](G)p.[moe](T)p.[moe](A)p.[moe](A)p.d([m5C])[sp].d(A)[sp].d(G)[sp].d([m5C])[sp].d(T)[sp].d([m5C])[sp].d(T)[sp].d(G)[sp].d(T)[sp].d(T)[sp].[moe]([m5C])p.[moe](G)p.[moe](A)[sp].[moe](T)}$$$$ (last 3' nucleoside missing)” gave a 3 h FOB score of 7 score 0-7.
In the case of “RNA1{[moe](G)[sp].[moe](G)p.[moe](T)p.[moe](A)p.[moe]([m5C])p.d(A)[sp].d([m5C])[sp].d(A)[sp].d(G)[sp].d(T)[sp].d(T)[sp].d(T)[sp].d([m5C])[sp].d(A)[sp].d([m5C])[sp].[moe](T)p.[moe](A)p.[moe](G)[sp].[moe](G)}$$$$ (last 3' nucleoside missing)”, the 3 h FOB score is reported as 4.75 score 0-7.
Work on “RNA1{[moe](G)[sp].[moe](G)p.[moe](T)p.[moe](G)p.[moe](A)p.d(T)[sp].d(G)[sp].d(T)[sp].d(T)[sp].d(T)[sp].d([m5C])[sp].d(A)[sp].d(T)[sp].d(T)[sp].d(G)[sp].[moe](G)p.[moe](G)p.[moe](T)[sp].[moe](T)}$$$$ (last 3' nucleoside missing)” yielded a 3 h FOB score of 4.5 score 0-7.
For “RNA1{[moe](G)[sp].[moe](G)p.[moe](T)p.[moe](G)p.[moe](G)[sp].d(T)[sp].d(G)[sp].d(T)[sp].d(G)[sp].d([m5C])[sp].d(G)[sp].d([m5C])[sp].d(A)[sp].[moe](T)p.[moe](G)p.[moe](T)[sp].[moe](A)}$$$$ (last 3' nucleoside missing)”, the 3 h FOB score was 7 score 0-7.
“RNA1{[moe](G)[sp].[moe](G)p.[moe](T)p.[moe](G)p.[moe](G)p.d(T)[sp].d(G)[sp].d(T)[sp].d(G)[sp].d([m5C])[sp].d(G)[sp].d([m5C])[sp].d(A)[sp].d(T)[sp].d(G)[sp].[moe](T)p.[moe](A)p.[moe](G)[sp].[moe](A)}$$$$ (last 3' nucleoside missing)” showed a 3 h FOB score of 7 score 0-7.
Substance “RNA1{[moe](G)[sp].[moe](G)p.[moe](T)p.[moe]([m5C])p.[moe](A)p.d(A)[sp].d(G)[sp].d(G)[sp].d(T)[sp].d([m5C])[sp].d(A)[sp].d(A)[sp].d(T)[sp].d(A)[sp].d([m5C])[sp].[moe](T)p.[moe](T)p.[moe](T)[sp].[moe](T)}$$$$ (last 3' nucleoside missing)” has a 3 h FOB score of 2 score 0-7.
Substance “RNA1{[moe](G)[sp].[moe](G)p.[moe]([m5C])p.[moe](T)p.[moe](G)p.d(G)[sp].d(A)[sp].d(A)[sp].d(G)[sp].d(T)[sp].d([m5C])[sp].d(T)[sp].d(G)[sp].d(A)[sp].d(A)[sp].[moe]([m5C])p.[moe]([m5C])p.[moe]([m5C])[sp].[moe]([m5C])}$$$$ (last 3' nucleoside missing)” has a 3 h FOB score of 6 score 0-7.
Substance “RNA1{[moe](G)[sp].[moe](T)[sp].[moe](G)[sp].[moe](G)[sp].[moe](G)[sp].d(A)[sp].d(T)[sp].d(A)[sp].d([m5C])[sp].d(A)[sp].d(A)[sp].d(A)[sp].d(T)[sp].d(T)[sp].d([m5C])[sp].[moe](T)[sp].[moe](A)[sp].[moe](G)[sp].[moe](G)}$$$$ (last 3' nucleoside missing)” has a 3 h FOB score of 7 score 0-7.
In the case of “RNA1{[moe](G)[sp].[moe](T)p.[moe](A)p.[moe](A)p.[moe]([m5C])p.d(A)[sp].d(A)[sp].d(T)[sp].d(T)[sp].d(G)[sp].d(T)[sp].d(A)[sp].d(A)[sp].d(A)[sp].d(T)[sp].[moe]([m5C])p.[moe]([m5C])p.[moe](A)[sp].[moe](T)}$$$$ (last 3' nucleoside missing)”, the 3 h FOB score is reported as 0.75 score 0-7.
“RNA1{[moe](G)[sp].[moe](T)p.[moe](A)p.[moe](G)p.[moe](T)p.d(G)[sp].d(T)[sp].d(T)[sp].d(T)[sp].d(G)[sp].d(G)[sp].d(G)[sp].d(A)[sp].d(T)[sp].d(G)[sp].[moe]([m5C])p.[moe](T)p.[moe](T)[sp].[moe]([m5C])}$$$$ (last 3' nucleoside missing)” gave a 3 h FOB score of 6 score 0-7.
For “RNA1{[moe](G)[sp].[moe](T)p.[moe](A)p.[moe](T)p.[moe](G)[sp].d(T)[sp].d(T)[sp].d(T)[sp].d(G)[sp].d(T)[sp].d([m5C])[sp].d(T)[sp].d(G)[sp].[moe](T)p.[moe]([m5C])p.[moe](T)[sp].[moe](T)}$$$$ (last 3' nucleoside missing)”, the 3 h FOB score was 6.5 score 0-7.
In the case of “RNA1{[moe](G)[sp].[moe](T)p.[moe](A)p.[moe](T)p.[moe](G)p.d(T)[sp].d(T)[sp].d(T)[sp].d(G)[sp].d(T)[sp].d([m5C])[sp].d(T)[sp].d(G)[sp].d(T)[sp].d([m5C])[sp].[moe](T)p.[moe](T)p.[moe](A)[sp].[moe](T)}$$$$ (last 3' nucleoside missing)”, the 3 h FOB score is reported as 6 score 0-7.
“RNA1{[moe](G)[sp].[moe](T)p.[moe](A)p.[moe](T)p.[moe](T)p.d(T)[sp].d(T)[sp].d(T)[sp].d([m5C])[sp].d(T)[sp].d(T)[sp].d([m5C])[sp].d([m5C])[sp].d(T)[sp].d([m5C])[sp].[moe](A)p.[moe]([m5C])p.[moe](T)[sp].[moe]([m5C])}$$$$ (last 3' nucleoside missing)” showed a 3 h FOB score of 3.25 score 0-7.
“RNA1{[moe](G)[sp].[moe](T)p.[moe](A)p.[moe](T)p.[moe]([m5C])p.d(A)[sp].d(T)[sp].d(A)[sp].d(T)[sp].d(A)[sp].d(T)[sp].d(T)[sp].d(T)[sp].d([m5C])[sp].d(T)[sp].[moe]([m5C])p.[moe](A)p.[moe](G)[sp].[moe]([m5C])}$$$$ (last 3' nucleoside missing)” gave a 3 h FOB score of 2.25 score 0-7.
In the case of “RNA1{[moe](G)[sp].[moe](T)p.[moe](A)p.[moe]([m5C])p.[moe](A)p.d(T)[sp].d(T)[sp].d(T)[sp].d(T)[sp].d(A)[sp].d(A)[sp].d([m5C])[sp].d([m5C])[sp].d([m5C])[sp].d(T)[sp].[moe](T)p.[moe](T)p.[moe](G)[sp].[moe](A)}$$$$ (last 3' nucleoside missing)”, the 3 h FOB score is reported as 2.5 score 0-7.
